Test: solvent given as SMILES
[1] = in CCCCCCCCC=CCCCCCCCC(=O)OCC(COC(=O)CCCCCCCC=CCCCCCCCC)OC(=O)CCCCCCCC=CCCCCCCCC

CCOC(C)=O
solvation free energy, 298 K (in Brc1cccc2ccccc12): -3.95 kcal/mol | solvation free energy, 298 K (in C1CCOC1): -4.56 kcal/mol | solvation free energy, 298 K (in C1COCCO1): -4.49 kcal/mol | solvation free energy, 298 K (in C=CCCCCCCCCCCCCCC): -3.23 kcal/mol | solvation free energy, 298 K (in CC(=O)N(C)C): -4.23 kcal/mol | solvation free energy, 298 K (in CC(=O)OCc1ccccc1): -4.29 kcal/mol | solvation free energy, 298 K (in CC(C)CC(C)(C)C): -3.53 kcal/mol | solvation free energy, 298 K (in CC(C)CCCC(C)CCCC(C)CCCCC(C)CCCC(C)CCCC(C)C): -3.2 kcal/mol | solvation free energy, 298 K (in CC(C)O): -3.9 kcal/mol | solvation free energy, 298 K (in CCC(C)=O): -4.49 kcal/mol | solvation free energy, 298 K (in CCCC=O): -4.49 kcal/mol | solvation free energy, 298 K (in CCCCC(CC)COC(=O)CCCCC(=O)OCC(CC)CCCC): -3.73 kcal/mol | solvation free energy, 298 K (in CCCCCC): -3.61 kcal/mol | solvation free energy, 298 K (in CCCCCC=CCC=CCCCCCCCC(=O)O): -3.67 kcal/mol | solvation free energy, 298 K (in CCCCCCC): -3.53 kcal/mol | solvation free energy, 298 K (in CCCCCCCC): -3.4 kcal/mol | solvation free energy, 298 K [1]: -3.72 kcal/mol | solvation free energy, 298 K (in CCCCCCCCCC): -3.28 kcal/mol | solvation free energy, 298 K (in CCCCCCCCCCCCCC): -3.24 kcal/mol | solvation free energy, 298 K (in CCCCCCCCCCCCCCCC): -3.23 kcal/mol | solvation free energy, 298 K (in CCCCCCCCO): -3.69 kcal/mol | solvation free energy, 298 K (in CCCCCO): -3.87 kcal/mol | solvation free energy, 298 K (in CCCCCl): -4.32 kcal/mol | solvation free energy, 298 K (in CCCCN(C=O)CCCC): -3.96 kcal/mol | solvation free energy, 298 K (in CCCCO): -3.97 kcal/mol | solvation free energy, 298 K (in CCO): -4.06 kcal/mol | solvation free energy, 298 K (in CCOC(=O)c1ccccc1C(=O)OCC): -3.94 kcal/mol | solvation free energy, 298 K (in CCOCCO): -4.14 kcal/mol | solvation free energy, 298 K (in CCOP(=O)(OCC)OCC): -4.13 kcal/mol | solvation free energy, 298 K (in CN1CCCC1=O): -4.16 kcal/mol | solvation free energy, 298 K (in CN1CCCCC1=O): -4.16 kcal/mol | solvation free energy, 298 K (in CN1CCN(C)C1=O): -3.98 kcal/mol | solvation free energy, 298 K (in CN(C)C=O): -4.32 kcal/mol | solvation free energy, 298 K (in CNC(C)=O): -4.04 kcal/mol | solvation free energy, 298 K (in CO): -4.38 kcal/mol | solvation free energy, 298 K (in COP(=O)(OC)OC): -4.28 kcal/mol | solvation free energy, 298 K (in CS(C)=O): -3.88 kcal/mol | solvation free energy, 298 K (in Cc1ccc(C)cc1): -4.21 kcal/mol | solvation free energy, 298 K (in Cc1cccc(C)c1): -4.15 kcal/mol | solvation free energy, 298 K (in ClCCCl): -4.71 kcal/mol | solvation free energy, 298 K (in ClCCl): -5.22 kcal/mol | solvation free energy, 298 K (in Clc1ccccc1): -4.43 kcal/mol | solvation free energy, 298 K (in NC=O): -3.61 kcal/mol | solvation free energy, 298 K (in O): -2.95 kcal/mol | solvation free energy, 298 K (in O=C1CCCCC1): -4.33 kcal/mol | solvation free energy, 298 K (in O=CN1CCOCC1): -3.89 kcal/mol | solvation free energy, 298 K (in OCCOCCO): -3.53 kcal/mol | solvation free energy, 298 K (in [2H]O[2H]): -3.02 kcal/mol | solvation free energy, 298 K (in c1ccc2ncccc2c1): -4.07 kcal/mol

Cc1ccc(C(C)C)cc1
solvation free energy, 298 K (in COCCO): -5.72 kcal/mol | solvation free energy, 298 K (in CS(C)=O): -5.55 kcal/mol | solvation free energy, 298 K (in O): -0.67 kcal/mol

Oc1ccccc1I
solvation free energy, 298 K (in O): -6.21 kcal/mol

O=C(O)c1cc(-c2ccc(F)cc2F)ccc1O
solvation free energy, 298 K (in O): -9.4 kcal/mol

C=C(C)C1CC=C(C)C(OC(=O)CC)C1 (stereo unspecified)
solvation free energy, 298 K (in O): -3.87 kcal/mol

CC(=O)C(C)(C)C
solvation free energy, 298 K (in CCCCCC): -4.34 kcal/mol | solvation free energy, 298 K (in CCCCCCC): -4.3 kcal/mol | solvation free energy, 298 K (in CCCCCCCC): -4.21 kcal/mol | solvation free energy, 298 K (in CCCCCCCCCC): -4.15 kcal/mol | solvation free energy, 298 K (in O): -3.11 kcal/mol

COC(OC)(OC)C(F)(F)F
solvation free energy, 298 K (in O): -0.8 kcal/mol

CC(C)N(N=O)C(C)C
solvation free energy, 298 K (in CC(C)CC(C)(C)C): -6.07 kcal/mol | solvation free energy, 298 K (in O): -5.16 kcal/mol

FCF
solvation free energy, 298 K (in CCCCCCCCC): -0.37 kcal/mol | solvation free energy, 298 K (in CCCCCCCCO): -0.57 kcal/mol | solvation free energy, 298 K (in CN1CCCC1=O): -1.69 kcal/mol | solvation free energy, 298 K (in CN(C)C=O): -1.69 kcal/mol | solvation free energy, 298 K (in O): -0.33 kcal/mol

Cc1ccncc1C
solvation free energy, 298 K (in O): -5.22 kcal/mol

Nc1ccccc1Cl
solvation free energy, 298 K (in O): -4.91 kcal/mol

O=Cc1ccccc1
solvation free energy, 298 K (in CCCCCC): -5.53 kcal/mol | solvation free energy, 298 K (in CCCCCCC): -5.5 kcal/mol | solvation free energy, 298 K (in CCCCCCCCCCCCCCCC): -5.37 kcal/mol | solvation free energy, 298 K (in O): -4.02 kcal/mol

OC(Cl)CCCl (stereo unspecified)
solvation free energy, 298 K (in CCCCCCCCCCO): -7 kcal/mol

NC1CCCCC1
solvation free energy, 298 K (in C1CCCCC1): -5.47 kcal/mol

CCC(C)CC
solvation free energy, 298 K (in C=CCCCCCCCCCCCCCC): -3.42 kcal/mol | solvation free energy, 298 K (in CC#N): -2.58 kcal/mol | solvation free energy, 298 K (in CCCCCCCCCCCCCCCC): -3.55 kcal/mol | solvation free energy, 298 K (in CCCCCO): -3.33 kcal/mol | solvation free energy, 298 K (in CCCCO): -3.19 kcal/mol | solvation free energy, 298 K (in O): 2.47 kcal/mol

CCCCC[N+](=O)[O-]
solvation free energy, 298 K (in O): -2.82 kcal/mol

C=CC(C)=CCCC(=C)C
solvation free energy, 298 K (in O): -0.55 kcal/mol

CCC(C)CCO (stereo unspecified)
solvation free energy, 298 K (in CCCCCCCC): -4.82 kcal/mol | solvation free energy, 298 K (in CCCCCCCCCC): -4.79 kcal/mol

CC(N)=O
solvation free energy, 298 K (in C=CCCCCCCC=C): -4.98 kcal/mol | solvation free energy, 298 K (in C=CCCCCCCCCCCCCCC): -4.26 kcal/mol

CCCCC(=O)OCC
solvation free energy, 298 K (in O): -2.49 kcal/mol

CCc1ccccc1C
solvation free energy, 298 K (in O): -0.95 kcal/mol

CCSSCC
solvation free energy, 298 K (in O): -1.54 kcal/mol

Oc1ccccc1F
solvation free energy, 298 K (in CC(C)CC(C)(C)C): -4.58 kcal/mol | solvation free energy, 298 K (in CCCCCC): -4.69 kcal/mol | solvation free energy, 298 K (in CCCCCCC): -4.7 kcal/mol | solvation free energy, 298 K (in CCCCCCCC): -4.52 kcal/mol | solvation free energy, 298 K (in CCCCCCCCCC): -4.58 kcal/mol | solvation free energy, 298 K (in Cc1ccc(C)cc1): -5.86 kcal/mol | solvation free energy, 298 K (in Cc1cccc(C)c1): -5.89 kcal/mol | solvation free energy, 298 K (in Cc1ccccc1C): -5.96 kcal/mol | solvation free energy, 298 K (in O): -5.29 kcal/mol

Oc1ccc(Cl)cc1Cl
solvation free energy, 298 K (in CCCCCC): -6.8 kcal/mol | solvation free energy, 298 K (in CCCCCCC): -6.85 kcal/mol | solvation free energy, 298 K (in CCCCCCCC): -6.82 kcal/mol | solvation free energy, 298 K [1]: -7.49 kcal/mol | solvation free energy, 298 K (in CCCCCCCCCC): -6.79 kcal/mol | solvation free energy, 298 K (in Cc1ccc(C)cc1): -7.58 kcal/mol | solvation free energy, 298 K (in Cc1cccc(C)c1): -7.56 kcal/mol | solvation free energy, 298 K (in Cc1ccccc1C): -7.64 kcal/mol | solvation free energy, 298 K (in O): -4.98 kcal/mol

CN(C)CCC(c1ccc(Br)cc1)c1ccccn1 (stereo unspecified)
solvation free energy, 298 K (in O): -11.6 kcal/mol

CNc1nc(NC(C)C)nc(SC)n1
solvation free energy, 298 K (in O): -10.5 kcal/mol

From the CombiSolv-Exp solvation set (Vermeire and Green 2021)
